Measured values reported in patent publication US7323490B2, “Pyrrole compounds and uses thereof” (Ambit Biosciences Corporation, priority 2003, dated 2008).

Legend:
focal cerebral ischemia = assay: Rat MCAO model, time schedules of administration (Example 11); type: in vivo; conditions: 25 hrs post, 48 h
Protocol: The compounds were tested on a standardized rodent focal cerebral ischemia model produced by permanent occlusion of the right middle cerebral artery (MCA) plus one hour of tandem carotid artery occlusion according to Chen et al. A total of 96 animals underwent MCAo using subcutaneous administration of all test articles, according to the experimental design illustrated in Table 5 below. Three compounds at one predetermined dose were compared to vehicle and assigned to three different time schedules of administration relative to the time of MCAo. […] The time schedules for administration of all treated groups were divided as follows:
A second group of eighteen animals were used to test compound A (782236) using the treatment schedule, shown (a, b & c) above via intravenous (I.V.) administration. Groups of n=5 animals per treatment time period with compound A and 3 animals per control group via tail vein.
Animal Preparation and Middle Cerebral Artery Occlusion. Male, adult, Sprague-Dawley rats (Charles River), weighing 300-400 grams, were used for the study. All animals were acclimated at least for five days before entering the study. Animals were housed in a standard animal facility and fed with commercial rodent chow ad libitum. All animals were anesthetized via intramuscular injection (4 mL/kg) of “cocktail” containing ketamine (25 mg/mL), xylazine (1.3 mg/mL) and acepromazine (0.33 mg/mL). Both carotid arteries were separated with great caution to minimize the vagal nerve stimulation. The right proximal MCA trunk was exposed through a subtemporal craniectomy without transecting the facial nerve. […] Immediately following MCA occlusion, both of the common carotid arteries were occluded for 1 hour using surgical aneurysm micro-clips (ROBOZ INC). Animals were put into temperature regulated recovery chamber for 1 hour before the clips were removed from the common carotid arteries. Body temperature was maintained at 37±0.5° C. during the surgery using a heating blanket connected to a temperature controller.
Experimental Groups and Compound Administration. A total of 96 animals underwent MCAo using subcutaneous administration of all test articles, according to the experimental design illustrated in Table 5 below. Three compounds at one predetermined dose were compared to vehicle and assigned to three different time schedules of administration relative to the time of MCAo. […] The time schedules for administration of all treated groups were divided as follows:
A second group of eighteen animals were used to test compound A (782236) using the treatment schedule, shown (a, b & c) above via I.V. administration. Groups of n=5 animals per treatment time period with compound A and 3 animals per control group via tail vein.
Infarct Measurement. Forty-eight hours following MCAo, animals were euthanized with inhalation of CO2. Brains were removed and chilled in ice saline for 10 min. The brains were put in a metal rodent brain slicer. Each rat brain was cut coronally into 7 sections, with each section being 2 mm thick. The brain sections were immersed in 2% TTC solution for 30 min at 37° C. The areas of cerebral infarcts were determined on seven slices, using a computer-interfaced imaging system, Image-Pro® Plus, Version 4.4 for Windows (Media Cybernetics, MD). Infarct areas were then summed among slices and multiplied by slice thickness to give the total infarct volume.
Statistics. All data are expressed as mean±SEM. In Section A, infarct volume was analyzed using Student t Test. A p value of ≦0.05 was considered a statistically significant difference. All statistical analyses were performed with the software package JMP version 4.0 (SAS Institute Inc., Cary, N.C.).

[1] = test system: focal cerebral infarcts (MCAo); assay: Body swing test, Tamura MCAo model; type: in vivo, rat; parameters: unit not given here; conditions: AVG
Description: Surgical Preparation. Middle Cerebral Artery Occlusion (MCAo), Tamura Model. Focal cerebral infarcts were made by permanent occlusion of the proximal right middle cerebral artery using a modification of the method of Tamura et al. […] The temporalis muscle was bisected and reflected through an incision made midway between the eye and the eardrum canal. The proximal MCA was exposed through a subtemporal craniectomy without removing the zygomatic arch and without transecting the facial nerve. […] Animals were euthanatized at various time periods after MCA occlusion and the brains are removed for histological analysis. Behavioral Analysis. Two behavioral tests were performed, the limb placing and body swing test. […] Body Swing Test. The animal was held approximately 1 inch from the base of its tail. It was then elevated to an inch above a surface of a table. The animal was held in the vertical axis, defined as no more than 10° to either the left or the right side. A swing was recorded whenever the animal moves its head out of the vertical axis to either side. Before attempting another swing, the animal must return to the vertical position for the next swing to be counted. Thirty total swings were counted. A normal animal typically has an equal number of swings to either side. Following focal stroke, the animal tends to swing to the contralateral side. There is a slow spontaneous recovery of body swing during the first month after stroke. Experimental Groups and Compound Administration. A total of 80 animals underwent MCAo using subcutaneous administration of all test articles, according to the experimental design illustrated in Table 16. […] All animals were treated with the compound(s)/vehicle(s) as a blinded random investigation. The dose and route of administration is given below in Table 16.

PDE6D = PDE6D (Homo sapiens, UniProt O43924); assay: T7 phage display competition binding assay (immobilized atorvastatin), PDE6D; parameters: made in house; host or cells: T7 phage amplified in E. coli; conditions: soluble competitor vs atorvastatin-coated affinity matrix; T7 phage displaying human PDE6D
Description: The T7 phage displaying human PDE6D and CLB2 were obtained following the procedure of WO 01/18234, published Mar. 15, 2001, and U.S. patent applications Ser. No. 10/115,442, “Phage Display Affinity Filter and Forward Screen,” filed Apr. 2, 2002 and Ser. No. 10/214,654, “Uncoupling DNA Insert Propagation and Protein Display,” filed Aug. 7, 2002. […] The phage eluate was then amplified by growth in E. coli and the affinity enrichment procedure was repeated.
The dissociation constants, Kd's, for the interaction between the pyrrole compounds and the novel targets were obtained following the procedure of the co-pending patent applications U.S. Ser. Nos. 10/115,442, “Phage Display Affinity Filter and Forward Screen,” filed Apr. 2, 2002 and 60/480,587, “Protein Family Profiling Tool and Methods,” filed Jun. 20, 2003.

[2] = SC, schedule a: 2 hrs pre, 3 hrs post, doses per Table 5 (782236 1/0.5/0.5, others 10/5/5 mg/kg)
[3] = SC, schedule b: 1 hr post, 3 hrs post, doses per Table 5
[4] = SC, schedule c: 3 hrs post, 6 hrs post, doses per Table 5
[5] = administered six hours after MCAo
[6] = administered three hours after MCAo

| SMILES | infarction volume (focal cerebral ischemia; [2]) | infarction volume (focal cerebral ischemia; [3]) | infarction volume (focal cerebral ischemia; [4]) | Body swing test score, D0 [1, 5] | Body swing test score, D1 [1, 5] | Body swing test score, D3 [1, 5] | Body swing test score, D7 [1, 5] | Body swing test score, D0 [1, 6] | Body swing test score, D1 [1, 6] | Body swing test score, D3 [1, 6] | Body swing test score, D7 [1, 6] | infarction volume (focal cerebral ischemia; IV, schedule a: 2 hrs pre, 3 hrs post, 1/0.5/0.5 mg/kg) | infarction volume (focal cerebral ischemia; IV, schedule b: 1 hr post, 3 hrs post) | infarction volume (focal cerebral ischemia; IV, schedule c: 3 hrs post, 6 hrs post) | Kd (PDE6D) |
| --- | --- | --- | --- | --- | --- | --- | --- | --- | --- | --- | --- | --- | --- | --- | --- |
| CC(C)c1c(C(=O)Nc2ccccc2)c(-c2ccccc2)c(-c2ccc(F)cc2)n1CC[C@@H](O)C[C@@H](O)CC(=O)O [atorvastatin, reference compound] | 80.35±30.41 mm^3 | 121.52±22.58 mm^3 | 127.16±25.77 mm^3 | 50 | 19 | 17 | 19 | 50 | 13 | 28 | 41 |  |  |  |  |
| CC(C)c1c(C(=O)Nc2ccccc2)c(-c2ccccc2)c(-c2ccc(F)cc2)n1CC(O)C(O)C(O)C(O)CO (centres unmarked) [Compound 782236] | 138.6±35.13 mm^3 | 171.04±33.04 mm^3 | 155.53±29.66 mm^3 | 50 | 7 | 9 | 23 | 50 | 8 | 27 | 37 | 186.8±9.2 mm^3 | 122.8±17.9 mm^3 | 73.8±18.1 mm^3 | 269 nM |
| CC(C)c1[nH]c(-c2ccc(F)cc2)c(-c2ccccc2)c1C(=O)Nc1ccccc1 [Compound 781430] | 78.89±28.46 mm^3 | 96.51±31.62 mm^3 | 121.39±22.53 mm^3 | 50 | 19 | 22 | 23 | 50 | 31 | 43 | 44 |  |  |  | 75 nM |
